For seven molecules, IC50 and half-life results are on record in ChEMBL document CHEMBL4417631, “Oral peptide inhibitors of interleukin-23 receptor and their use to treat inflammatory bowel diseases” (2017).

Data set [1] deals with T1, Interleukin-23 receptor (Homo sapiens, UniProt Q5VWK5).
T1 sequence (Q5VWK5 whole entry): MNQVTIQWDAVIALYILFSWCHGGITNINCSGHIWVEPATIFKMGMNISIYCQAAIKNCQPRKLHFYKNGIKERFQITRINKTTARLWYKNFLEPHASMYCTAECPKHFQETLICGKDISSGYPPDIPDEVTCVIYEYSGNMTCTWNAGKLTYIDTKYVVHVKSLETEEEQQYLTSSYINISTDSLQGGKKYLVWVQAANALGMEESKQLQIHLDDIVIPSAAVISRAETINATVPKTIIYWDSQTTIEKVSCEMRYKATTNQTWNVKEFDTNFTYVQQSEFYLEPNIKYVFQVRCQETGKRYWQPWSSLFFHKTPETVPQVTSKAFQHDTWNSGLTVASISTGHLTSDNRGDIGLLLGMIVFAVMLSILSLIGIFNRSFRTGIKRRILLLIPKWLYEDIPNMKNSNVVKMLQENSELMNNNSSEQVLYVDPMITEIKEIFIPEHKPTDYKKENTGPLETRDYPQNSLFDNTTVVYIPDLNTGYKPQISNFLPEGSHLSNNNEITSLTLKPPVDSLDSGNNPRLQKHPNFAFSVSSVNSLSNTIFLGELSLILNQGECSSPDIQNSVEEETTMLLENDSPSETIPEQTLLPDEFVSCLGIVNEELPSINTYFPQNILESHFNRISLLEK
Kind of data set: Inhibition of interleukin-23 binding to human interleukin-23 receptor incubated for 2 hrs by competitive binding ELISA. Background: An ELISA detects its analyte on a solid surface through an enzyme-linked reagent.

Data set [2] deals with T1, Interleukin-23 receptor. Kind of data set: Inhibition of interleukin-23 receptor in human DB cells assessed as reduction in IL-23-stimulated STAT3 phosphorylation incubated for 30 mins by HTRF assay. The format is cell-based.
Data set [3] in a line: Inhibition of interleukin-23 binding to rat interleukin-23 receptor incubated for 2 hrs by competitive binding ELISA.
Data set [4] is described as follows: Half life in simulated intestinal fluid at 20 uM by LC-MS/MS analysis. The format is ADME.

Where a SMILES comes first, the peptide text is derived from it. [ ]: non-standard residue; d: D form. 2Nal = N[C@@H](Cc1ccc2ccccc2c1)C(=O)O; Pen = CC(C)(S)[C@H](N)C(=O)O; αMeK = C[C@](N)(CCCCN)C(=O)O

The IC50 is the concentration that gives 50% inhibition. The half-life is the time in which the quantity being followed falls by half. A high value points to slow decline. `CC(=O)N[C@H](C(=O)N[C@@H](CCC(N)=O)C(=O)N[C@H](C(=O)N[C@@H](Cc1c[nH]c2ccccc12)C(=O)N[C@@H](CCC(N)=O)C(=O)N[C@H](C(=O)N[C@@H](Cc1ccc(O)cc1)C(=O)N[C@@H](Cc1ccc2ccccc2c1)C(=O)N[C@@](C)(CCCCN)C(=O)N[C@@H](CCC(=O)O)C(=O)N[C@@H](CC(N)=O)C(=O)NCC(N)=O)C(C)(C)S)[C@@H](C)O)C(C)(C)S`: the IC50 on Interleukin-23 receptor [1] was 0.025 to 0.1 µM; at Interleukin-23 receptor [2], below 0.01 µM; in data set [3] it was 0.1 to 1 µM. Besides, in data set [4], the half-life at 20 µM was 3 to 6 h.

For `COc1ccc(C[C@H](NC(=O)[C@@H]2CSCC[C@H](NC(C)=O)C(=O)N[C@@H](CCC(N)=O)C(=O)N[C@@H]([C@@H](C)O)C(=O)N[C@@H](Cc3c[nH]c4ccccc34)C(=O)N[C@@H](CCC(N)=O)C(=O)N2)C(=O)N[C@@H](Cc2ccc3ccccc3c2)C(=O)NC(C)(C)C(=O)N[C@@H](CCCCNC(C)=O)C(=O)N[C@@H](CC(N)=O)C(=O)NCC(N)=O)cc1`, the IC50 on Interleukin-23 receptor [1] was 0.01 to 0.025 µM; on Interleukin-23 receptor [2], below 0.01 µM; in data set [3], 0.025 to 0.1 µM. In addition, the half-life at 20 µM in data set [4] was above 6 h.

Take `CC(=O)N[C@H](C(=O)N[C@@H](CCC(N)=O)C(=O)N[C@H](C(=O)N[C@@H](Cc1c[nH]c2ccccc12)C(=O)N[C@@H](CCC(N)=O)C(=O)N[C@H](C(=O)N[C@@H](Cc1ccc2ccccc2c1)C(=O)N[C@@H](Cc1ccc2ccccc2c1)C(=O)N[C@@](C)(CCCCN)C(=O)N[C@@H](CCC(=O)O)C(=O)N[C@@H](CC(N)=O)C(=O)NCC(N)=O)C(C)(C)S)[C@@H](C)O)C(C)(C)S` (Ac-[Pen]QTWQ[Pen][2Nal][2Nal][αMeK]ENG-NH2): the figures for the IC50 (on Interleukin-23 receptor [1]; on Interleukin-23 receptor [2]; in data set [3]) were 0.1 to 1 µM, 0.01 to 0.025 µM and 0.1 to 1 µM, respectively. Also, the half-life at 20 µM in data set [4] was 3 to 6 h.

As for `CC(=O)N[C@H]1CCSC[C@@H](C(=O)N[C@@H](Cc2ccc(O)cc2)C(=O)N[C@@H](Cc2c[nH]c3ccccc23)C(=O)N[C@@H](CCCNC(=N)N)C(=O)N[C@@H](CCC(=O)O)C(=O)N[C@@H](CC(N)=O)C(=O)NCC(=O)NCCOCC(=O)N[C@H](CCCCN)C(N)=O)NC(=O)[C@H](CCC(N)=O)NC(=O)[C@H](Cc2c[nH]c3ccccc23)NC(=O)[C@H]([C@@H](C)O)NC(=O)[C@H](CCC(N)=O)NC1=O`, the IC50 on Interleukin-23 receptor [1] was 0.1 to 1 µM; on Interleukin-23 receptor [2] it was 0.025 to 0.1 µM; in data set [3], 0.1 to 1 µM. The same molecule came in with a half-life at 20 µM in data set [4] below 1 h.

As for `COc1ccc(C[C@H](NC(=O)[C@@H]2CSCC[C@H](NC(C)=O)C(=O)N[C@@H](CCC(N)=O)C(=O)N[C@@H]([C@@H](C)O)C(=O)N[C@@H](Cc3c[nH]c4ccccc34)C(=O)N[C@@H](CCC(N)=O)C(=O)N2)C(=O)N[C@@H](Cc2ccc3ccccc3c2)C(=O)N[C@H](CC(N)=O)C(=O)N[C@@H](CCCCNC(C)=O)C(=O)N[C@@H](CC(N)=O)C(=O)NCC(N)=O)cc1`, the values for the IC50 (on Interleukin-23 receptor [1]; at Interleukin-23 receptor [2]; in data set [3]) were 0.025 to 0.1 µM, 0.025 to 0.1 µM and 0.1 to 1 µM, respectively. The same molecule displayed a half-life at 20 µM in data set [4] above 6 h.

Regarding `COc1ccc(C[C@H](NC(=O)[C@@H](NC(=O)[C@H](CCC(N)=O)NC(=O)[C@H](Cc2c[nH]c3ccccc23)NC(=O)[C@@H](NC(=O)[C@H](CCC(N)=O)NC(=O)[C@@H](NC(C)=O)C(C)(C)S)[C@@H](C)O)C(C)(C)S)C(=O)N[C@@H](Cc2cccc3ccccc23)C(=O)N[C@@](C)(CCCCN)C(=O)N[C@@H](CCCCNC(C)=O)C(=O)N[C@@H](CC(N)=O)C(=O)NCC(N)=O)cc1`, the results for the IC50 (on Interleukin-23 receptor [1]; on Interleukin-23 receptor [2]; in data set [3]) were 0.025 to 0.1 µM, 0.025 to 0.1 µM and 0.1 to 1 µM, respectively. This molecule also gave a half-life at 20 µM in data set [4] above 6 h.

As to `CC(=O)N[C@H]1CCSC[C@@H](C(=O)N[C@@H](Cc2ccc(O)cc2)C(=O)N[C@@H](Cc2c[nH]c3ccccc23)C(=O)N[C@@](C)(CC(C)C)C(=O)N[C@@H](CCC(=O)O)C(=O)N[C@@H](CC(N)=O)C(=O)NCC(N)=O)NC(=O)[C@H](CCC(N)=O)NC(=O)[C@H](Cc2c[nH]c3ccccc23)NC(=O)[C@H]([C@@H](C)O)NC(=O)[C@H](CCC(N)=O)NC1=O`, the IC50 at Interleukin-23 receptor [1] is 0.01 to 0.025 µM; at Interleukin-23 receptor [2], below 0.01 µM; in data set [3], 0.025 to 0.1 µM. This molecule returned a half-life at 20 µM in data set [4] below 1 h.
